Measurements from publication PMC5715595 (British Journal of Pharmacology, 2017).
Where two headings read alike, the source gives them in different places.

Experiments:
[1] = in vivo; conditions: both sexes, Beagle, dog, in vivo; for concentration at 1 h: po, 1 h after administration, read-out: total drug exposure (serum level)
Procedure: (§1) Telemetry implantation was performed as previously described (Lacroix et al., 2003). Approximately 2 weeks later, blood pressure, heart rate and ECG intervals were recorded per blocks of 30 s at the time points of interest for 30 min before and for 24 h after administration of test compound. ECG traces were inspected visually for any rhythm or conduction abnormalities (such as arrhythmia, tachyarrhythmia, atrioventricular conduction blocks), and values of PR, QRS and QT intervals were obtained by a validated manual reading procedure (mean calculated from three non‐consecutive sinus beats). The QT interval measured was corrected for heart rate using the Fridericia formula (QTcF) and the van de Waters formula. […] Five to six dogs (two or three males and three females) were studied with at least 48 h between each test session.
(§2) At the highest dose of 15 mg·kg^−1 p.o., this route provided an exposure (59 ± 25 ng·mL^−1), without any adverse CNS events (i.e. pre‐convulsive signs) in this species, close to the exposure recorded in humans at therapeutic doses. […] Pitolisant serum levels were assessed by LC‐mass spectrometry using a validated analytical method.

[2] = tested on: conscious telemetered dogs; experiment: in vivo; conditions: dog
Procedure: as §1, §2

[3] = tested on: human stem cell‐derived cardiomyocytes; format: cell-based
Source text: . Human cardiomyocytes (Cor.4U®, Axiogenesis AG, Cologne, Germany) were derived from human iPSC. Preparations were stimulated at 0.5 Hz with 4 ms rectangular pulses from 1 to 1.5 times depolarization threshold to −60 mV. We studied RMP, APA, action potential durations measured at 20 and 90% repolarization (APD20 and APD90) and APD90‐APD20. […]

[4] = target: CaV1.2 (Homo sapiens, UniProt Q13936); experiment: cell-based
Procedure: (§3) and CiPA Initiative Studies
(§4) =============================================================
(§5) In vitro studies on other ion channels […]
(§6) through NaV1.5, KV4.3, KV7.1/mink, Kir2.1, KV1.5, CaV1.2 and CaV3.2 channels.
(§7) 35-mm dish culture in the conditions mentioned in standard cell culture conditions. Experiments were performed with a cell density enabling isolated cells for patch clamping. Cells were continuously superfused with extracellular medium (1-2 mL∙minute-1) at room temperature.
(§8) D-glucose 10, HEPES 10 and the final pH adjusted to 7.4±0.02 with NaOH for recording NaV1.5, KV4.3, KV7.1/mink, Kir2.1, KV1.5 and CaV3.2 currents. It was (in mM): NaCl 110, KCl 4, BaCl2 20, MgCl2 1, D-glucose 20, HEPES 10 and the final pH adjusted to 7.4 ± 0.02 with NaOH for recording the CaV1.2 current. Compositions of the intracellular solution to fill the pipette are […]
(§9) Composition of intracellular solutions used to fill pipette to record currents through NaV1.5, KV4.3, KV7.1/mink, Kir2.1, KV1.5, CaV1.2 and CaV3.2 channels
(§10) Solution to fill the pipette (mM)
(§11) Creatine-phospho kinase 50 U∙mL-1
(§12) After formation of a Gigaohm seal between the patch electrodes and individual cells (pipette resistance range: 2.0 MΩ - 7.0 MΩ; seal resistance range: > 1 GΩ) the cell membrane across the pipette tip was ruptured to assure electrical access to the cell interior (whole-cell patch-configuration). In case the quality of the seal was poor, the process of seal formation was repeated with a different cell and a new pipette. As soon as a stable seal was established outward tail currents were measured upon pulses described in the Table S2. If current density was judged to be too low for measurement, another cell was recorded. […]
(§13) voltage stimulation protocol indicated in the next table continuously run until the steady-state level of block was reached.
(§14) Stimulation conditions used to record currents through NaV1.5, KV4.3, KV7.1/mink, Kir2.1, KV1.5, CaV1.2 and CaV3.2 channels
(§15) Ion channel Holding potential Pulse / duration Frequency Reference compound […]
(§16) (resting / fast / slow sweeps at one (10 mM) inactivated concentration)

[5] = target: NaV1.5 (Homo sapiens, UniProt Q14524); experiment: cell-based
NaV1.5, sequence (Q14524 whole entry): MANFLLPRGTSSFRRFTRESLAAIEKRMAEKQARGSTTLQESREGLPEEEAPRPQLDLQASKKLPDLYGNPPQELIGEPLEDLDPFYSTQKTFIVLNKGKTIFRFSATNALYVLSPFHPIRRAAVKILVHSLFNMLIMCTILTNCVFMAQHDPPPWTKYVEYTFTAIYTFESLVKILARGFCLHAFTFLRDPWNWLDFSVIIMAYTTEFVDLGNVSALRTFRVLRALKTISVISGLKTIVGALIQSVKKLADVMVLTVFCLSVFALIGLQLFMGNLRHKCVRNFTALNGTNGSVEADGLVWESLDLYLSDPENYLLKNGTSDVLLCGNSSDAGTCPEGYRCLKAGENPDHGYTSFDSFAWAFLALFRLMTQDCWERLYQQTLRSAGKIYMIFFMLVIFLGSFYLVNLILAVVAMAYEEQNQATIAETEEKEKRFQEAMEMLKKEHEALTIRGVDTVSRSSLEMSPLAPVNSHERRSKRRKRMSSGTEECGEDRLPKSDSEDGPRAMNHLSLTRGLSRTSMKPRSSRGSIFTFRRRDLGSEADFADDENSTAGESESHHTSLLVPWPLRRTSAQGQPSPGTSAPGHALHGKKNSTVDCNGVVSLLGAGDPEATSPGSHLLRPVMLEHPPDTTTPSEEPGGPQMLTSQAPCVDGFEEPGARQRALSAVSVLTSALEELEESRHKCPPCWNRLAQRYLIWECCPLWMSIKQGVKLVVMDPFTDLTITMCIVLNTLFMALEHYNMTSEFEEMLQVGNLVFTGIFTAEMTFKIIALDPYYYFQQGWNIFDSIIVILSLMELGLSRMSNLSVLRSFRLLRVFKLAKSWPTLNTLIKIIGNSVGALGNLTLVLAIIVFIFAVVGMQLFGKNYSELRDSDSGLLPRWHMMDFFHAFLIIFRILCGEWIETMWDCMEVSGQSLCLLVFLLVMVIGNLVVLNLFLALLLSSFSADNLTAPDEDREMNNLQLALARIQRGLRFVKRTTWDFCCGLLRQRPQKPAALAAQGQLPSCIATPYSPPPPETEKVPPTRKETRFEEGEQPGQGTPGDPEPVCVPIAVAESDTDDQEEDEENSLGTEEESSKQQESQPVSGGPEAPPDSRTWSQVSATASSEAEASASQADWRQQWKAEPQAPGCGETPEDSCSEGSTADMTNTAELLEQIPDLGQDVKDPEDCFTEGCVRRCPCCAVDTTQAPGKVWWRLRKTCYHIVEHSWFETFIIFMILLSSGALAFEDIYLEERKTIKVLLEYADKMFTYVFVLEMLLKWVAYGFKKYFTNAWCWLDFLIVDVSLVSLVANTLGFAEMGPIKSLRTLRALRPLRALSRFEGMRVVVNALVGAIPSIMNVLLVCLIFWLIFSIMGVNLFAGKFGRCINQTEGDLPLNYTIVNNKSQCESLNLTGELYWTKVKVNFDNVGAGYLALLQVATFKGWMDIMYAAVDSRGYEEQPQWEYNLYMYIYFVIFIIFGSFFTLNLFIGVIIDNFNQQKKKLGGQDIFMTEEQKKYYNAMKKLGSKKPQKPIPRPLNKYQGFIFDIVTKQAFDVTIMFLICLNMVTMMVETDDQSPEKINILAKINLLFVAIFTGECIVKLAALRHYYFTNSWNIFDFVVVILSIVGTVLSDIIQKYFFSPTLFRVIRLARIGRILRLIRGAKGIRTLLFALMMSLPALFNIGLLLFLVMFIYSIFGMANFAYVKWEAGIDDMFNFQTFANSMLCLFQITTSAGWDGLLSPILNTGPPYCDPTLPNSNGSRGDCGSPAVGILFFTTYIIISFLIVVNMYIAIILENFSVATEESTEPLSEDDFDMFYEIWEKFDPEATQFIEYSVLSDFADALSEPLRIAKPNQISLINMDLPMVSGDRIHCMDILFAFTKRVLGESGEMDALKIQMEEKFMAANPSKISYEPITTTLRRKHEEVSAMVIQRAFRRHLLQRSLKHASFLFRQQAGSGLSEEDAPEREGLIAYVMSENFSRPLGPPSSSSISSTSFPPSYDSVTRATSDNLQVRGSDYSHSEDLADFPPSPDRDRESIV
Procedure: as §3, §4, §5, §6, §7, §8, §9, §10, §11, §12, §13, §14, §15, §16

With `Cl.Clc1ccc(CCCOCCCN2CCCCC2)cc1` [pitolisant, 1‐{3‐[3‐(4‐chlorophenyl)propoxy]propyl}piperidine, hydrochloride] the concentration at 5 min ([1]; iv, 1.5 mg·kg^−1 i.v., 5 min, read-out: total drug concentration) was 294 ± 40 ng/mL, the concentration at 30 min ([1]; iv, 1.5 mg·kg^−1 i.v., 30 min, read-out: total drug concentration) was 231 ± 36 ng/mL and the concentration at 1 h ([1]; 5 mg·kg^−1 p.o.) was 3.5 ± 1 ng/mL. The concentration at 1 h ([1]; 10 mg·kg^−1 p.o.) was 15.8 ± 5.8 ng/mL, the concentration at 1 h ([1]; 15 mg·kg^−1 p.o.) was 59 ± 25 ng/mL and the free drug concentration ([2]; both, Beagle, in vivo, iv) was ~ 0.14 μM. The “effect on mean arterial blood pressure and heart rate” value ([2]; 4.5 mg·kg^−1 i.v., for up to 4 h after injection) was “increases in mean arterial blood pressure and heart rate”, the “effect on QTcF interval” value ([2]; 4.5 mg·kg^−1 i.v., return to baseline 30 min after injection) was “decrease in QTcF interval for 20 min” and the “total drug exposure (serum level)” value ([2]; 15 mg·kg^−1 p.o., 1 h after administration) was 59.2 ± 24.6 ng/mL. For the same molecule, the “arrhythmia or other morphological changes in the ECG” value ([2]; over the test period, 6/6 dogs) was “No arrhythmia or other morphological changes in the ECG”, the “effect on heart rate, mean arterial blood pressure, QTc interval or any other ECG parameter” value ([2]; single doses 5, 10 and 15 mg·kg^−1 p.o. or 1.5 mg·kg^−1 i.v., compared to vehicle) was “no effect” and the “effect on dofetilide-induced increase in APD90” value [3] was “fully reversed”. For the same molecule, the “increase in APD90–20 vs. baseline” value ([3]; 3 μM) was 192 ms, the “maximal increase in APD90” value ([3]; 3 μM) was 97 ms and the “increase in APD90–20 vs. baseline” value ([3]; 10 μM) was 176 ms. The “effect on APD20” value ([3]; 1, 3 or 10 μM) was “concentration‐dependent effect of decreasing APD20”, the “effect on RMP and APA” value ([3]; 1, 3 or 10 μM) was “little effect” and the IC50 ([4]; Fitted IC50, CaV1.2 ICaL, Hill curve fit with Hill coefficient of one) was 9.5 µM. It also gave an IC50 ([4]; Pitolisant IC50, CaV1.2, ICaL) of roughly 10 µM, an IC50 ([5]; Fitted IC50, fit to fast inactivated Nav1.5) of 26.3 µM and an IC50 ([5]; Fitted IC50, fit to slow inactivated Nav1.5) of 26.5 µM. It also gave an IC50 ([5]; Fitted IC50, mean of fits to fast and slow inactivated Nav1.5, used for the whole Nav1.5 current, Hill coefficient of one) of 26.4 µM, an IC50 ([5]; Pitolisant IC50, NaV1.5 fast inactivated state, INa) of no less than 10 µM and an IC50 ([5]; Pitolisant IC50, NaV1.5 resting state, INa) greater than 10 µM. It also gave an IC50 ([5]; Pitolisant IC50, NaV1.5 slow inactivated state, INa) of no less than 10 µM.
